Experimental data reported in US20250281481A1, “NALTREXONE FOR BOOSTING THE THERAPEUTIC UTILTY OF 5-HT RECEPTOR AGONISTS” (LDN Pharma Limited, priority 2021, published 2025).

Tests used:
Format in all cases: cell-based, human
[1] = test system: 5-HT receptor 4, transcript variant a, mRNA (HTR4); assay: Microarray gene expression in CD3+ lymphocytes, HTR4 transcript variant a; details: 4 h, probe 1676350
Protocol: (§1) CD3+ lymphocytes were isolated from the blood of haematologically normal volunteers. Cells placed into 25 cm^3 flasks at a concentration of 1×10^6/ml, and left to equilibrate in an incubator with a humidified atmosphere and 5% CO2 in air at 37° C. […] RNA extraction was performed using Trizol according to standard procedures, before being processed for microarray analysis according to the standard methodologies. Briefly, equal amounts of biotinylated cRNA was hybridised to the Illumina human HT12-v3 arrays for 18 h and subsequently processed according to manufacturer's instructions before scanning on an Illumina BeadArray Reader. The image data were processed using default values in GenomeStudio v2009.1 with imputation of missing data, before loading onto GeneSpring v9.0 for data normalisation and filtering. Data analyses were performed using Excel software, and the ratio of gene expression signals in treated vs. untreated calculated.

[2] = test system: 5-HT receptor 3A, transcript variant 2, mRNA (HTR3A); assay: Microarray gene expression in CD3+ lymphocytes, HTR3A transcript variant 2; details: 4 h, probe 2371079
Protocol: as §1

[3] = test system: mRNA for one or more of 5-HT receptor proteins; assay: Microarray gene expression in CD3+ lymphocytes, overall statement; details: both higher dose and low dose naltrexone, 4 h
Protocol: as §1

[4] = test system: 5-HT receptor 3A, transcript variant 1, mRNA (HTR3A); assay: Microarray gene expression in CD3+ lymphocytes, HTR3A transcript variant 1; details: naltrexone 10 nM, 4 h, probe 1681492
Protocol: as §1

[5] = test system: 5-HT receptor 2B, mRNA (HTR2B); assay: Microarray gene expression in CD3+ lymphocytes, HTR2B; details: 4 h, probe 1735764
Protocol: as §1

[6] = test system: 5-HT receptor 4, transcript variant hb, mRNA (HTR4); assay: Microarray gene expression in CD3+ lymphocytes, HTR4 transcript variant hb; details: naltrexone 10 nM, 4 h, probe 1808258
Protocol: as §1

[7] = test system: 5-HT receptor 1E, mRNA (HTR1E); assay: Microarray gene expression in CD3+ lymphocytes, HTR1E; details: 4 h, probe 1794095
Protocol: as §1

Which “gene expression signal, LDN” value ([1]; naltrexone 10 nM) does the source give for O=C1CC[C@@]2(O)[C@H]3Cc4ccc(O)c5c4[C@@]2(CCN3CC2CC2)[C@H]1O5 [NTX, morphinan-6-one,17-(cyclopropylmethyl)-4,5-epoxy-3,14-dihydroxy-(5α)] here?
Its value is 100.20.

And the “gene expression signal, NTX” value ([1]; naltrexone 10 uM)?
The value was 96.10.

What about the “gene expression signal, LDN” value ([2]; naltrexone 10 nM) of the same molecule?
Its value is 124.70.

What about the “gene expression signal, NTX” value ([2]; naltrexone 10 uM) of the same molecule?
Its value is 151.75.

What about the “levels of mRNA for one or more of 5-HT receptor proteins” value [3] of the same molecule?
Its value is “increase the levels of mRNA”.

And the “gene expression signal, LDN” value [4]?
Its value is 94.00.

What about the “gene expression signal, LDN” value ([5]; naltrexone 10 nM) of the same molecule?
The value was 147.45.

And the “gene expression signal, NTX” value ([5]; naltrexone 10 uM)?
Its value is 177.95.

What about the “gene expression signal, LDN” value [6] of the same molecule?
Its value is 93.50.

And the “gene expression signal, LDN” value ([7]; naltrexone 10 nM)?
The value was 101.20.

What about the “gene expression signal, NTX” value ([7]; naltrexone 10 uM) of the same molecule?
Its value is 95.70.
